pIC50, pKd: −log10 of the molar value. Where two headings read alike, the source gives them in different places.
Experiments:
[1] = biological target: T1, full length N-terminally FLAG-tagged PARP1 (Homo sapiens, UniProt P09874); assay: PARP1 probe displacement HTRF assay; conditions: for Selectivity: PARP1 over PARP2, ratio Kd (PARP2)/Kd (PARP1); for pKd: binned Kd
[2] = biological target: T1, full length N-terminally FLAG-tagged PARP1; assay: PARP1 biochemical DELFIA assay (auto-PARylation); parameters: recombinant full length human N-terminally FLAG-tagged PARP1
[3] = biological target: T2, N-terminally FLAG-tagged PARP2 (amino acids 1-583) (Homo sapiens, UniProt Q9UGN5); assay: PARP2 probe displacement HTRF assay; type: binding; conditions: binned Kd
T2 construct: N-terminally FLAG-tagged PARP2 (amino acids 1-583)
Experimental: Data analysis was performed identical as for PARP1.

[4] = read-out: PARP1 HTRF, PARP1 probe displacement HTRF
[5] = binned IC50, PARP1 biochemical DELFIA assay
[6] = read-out: PARP1 HTRF, probe displacement HTRF
[7] = binned IC50, biochemical auto-PARylation assay

T2 sequence (Q9UGN5 whole entry, the tested form may be a part): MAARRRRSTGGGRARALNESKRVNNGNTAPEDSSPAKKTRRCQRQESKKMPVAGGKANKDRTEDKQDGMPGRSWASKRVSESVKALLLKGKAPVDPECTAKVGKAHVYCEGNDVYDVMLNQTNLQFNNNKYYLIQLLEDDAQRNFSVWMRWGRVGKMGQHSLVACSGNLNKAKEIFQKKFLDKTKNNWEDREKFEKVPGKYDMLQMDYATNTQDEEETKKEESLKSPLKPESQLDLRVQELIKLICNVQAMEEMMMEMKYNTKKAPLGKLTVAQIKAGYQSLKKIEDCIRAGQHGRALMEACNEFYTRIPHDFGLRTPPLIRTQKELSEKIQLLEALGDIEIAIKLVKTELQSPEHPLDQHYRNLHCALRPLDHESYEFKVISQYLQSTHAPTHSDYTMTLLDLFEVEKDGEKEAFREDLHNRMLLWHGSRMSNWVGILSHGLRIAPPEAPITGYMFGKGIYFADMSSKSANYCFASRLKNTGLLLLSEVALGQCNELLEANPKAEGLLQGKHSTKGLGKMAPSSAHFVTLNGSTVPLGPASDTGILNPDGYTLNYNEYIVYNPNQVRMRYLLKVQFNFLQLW
T1 sequence (P09874 whole entry): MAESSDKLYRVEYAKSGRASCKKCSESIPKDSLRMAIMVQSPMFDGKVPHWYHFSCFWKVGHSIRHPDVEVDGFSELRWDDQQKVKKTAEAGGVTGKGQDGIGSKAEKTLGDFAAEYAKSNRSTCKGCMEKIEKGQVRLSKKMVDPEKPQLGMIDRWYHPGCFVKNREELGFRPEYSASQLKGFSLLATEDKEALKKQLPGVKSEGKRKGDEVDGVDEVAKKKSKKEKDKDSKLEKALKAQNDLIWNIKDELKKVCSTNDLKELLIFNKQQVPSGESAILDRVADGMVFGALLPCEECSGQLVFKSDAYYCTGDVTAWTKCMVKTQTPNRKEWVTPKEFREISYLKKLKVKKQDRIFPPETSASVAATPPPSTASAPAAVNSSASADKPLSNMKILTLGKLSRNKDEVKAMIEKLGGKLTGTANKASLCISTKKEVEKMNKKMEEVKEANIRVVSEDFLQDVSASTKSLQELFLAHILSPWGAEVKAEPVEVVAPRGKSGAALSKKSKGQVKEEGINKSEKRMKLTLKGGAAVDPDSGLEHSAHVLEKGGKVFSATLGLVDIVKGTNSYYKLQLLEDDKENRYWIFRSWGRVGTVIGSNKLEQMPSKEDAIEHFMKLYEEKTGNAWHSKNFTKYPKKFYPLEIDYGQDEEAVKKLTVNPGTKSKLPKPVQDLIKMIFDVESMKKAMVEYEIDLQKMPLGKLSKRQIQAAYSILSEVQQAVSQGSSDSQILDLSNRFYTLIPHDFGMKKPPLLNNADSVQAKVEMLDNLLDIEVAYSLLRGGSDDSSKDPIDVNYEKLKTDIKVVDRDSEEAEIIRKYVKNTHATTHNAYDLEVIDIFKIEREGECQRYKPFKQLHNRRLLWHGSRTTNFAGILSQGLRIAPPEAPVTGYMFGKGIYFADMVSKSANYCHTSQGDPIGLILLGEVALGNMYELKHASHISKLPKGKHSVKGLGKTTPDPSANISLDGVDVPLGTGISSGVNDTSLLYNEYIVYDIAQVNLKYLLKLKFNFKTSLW

Compound | Selectivity ([1]; probe displacement HTRF) | pKd [1, 4] | pIC50 [2, 5] | pKd ([3]; PARP2 probe displacement HTRF) | pKd [1, 6] | pIC50 [2, 7] | pKd ([3]; probe displacement HTRF) | pKd ([1]; PARP1 HTRF, probe displacement HTRF) | pKd ([1]; PARP1 HTRF, PARP1 probe displacement HTRF)
CNC(=O)c1ccc(N2CCC(N3CCC(c4cc5cccc(F)c5c(=O)[nH]4)C3)CC2)c(Cl)n1 (single isomer, unassigned) [Compound 183a] | +++ (+++ indicate a value of at least 100) | > 8.00 | > 8.00 | 5.00 to 6.00 | – | – | – | – | –
CNC(=O)c1ccc(N2CCC(N3CCC(c4nc5ccc(C(F)(F)F)cc5c(=O)[nH]4)C3)CC2)cn1 (single isomer, unassigned) [Compound 161b] | +++ (+++ indicate a value of at least 100) | > 8.00 | > 8.00 | 5.00 to 6.00 | – | – | – | – | –
CNC(=O)c1ccc(N2CCC(N3CCC(c4nc5c(C)nn(C)c5c(=O)[nH]4)C3)CC2)cn1 (racemic) [Compound 143rac] | +++ (+++ indicate a value of at least 100) | > 8.00 | 7.00 to 8.00 | 5.00 to 6.00 | – | – | – | – | –
CCc1ccc(C2CCN(C3CCN(c4ccc(C(=O)NC5CC5)nc4)CC3)C2)[nH]c1=O (single isomer, unassigned) [Compound 338b] | ++ (++ indicates a value of 50 to less than 100) | – | – | – | 7.00 to 8.00 | 7.00 to 8.00 | 5.00 to 6.00 | – | –
CNC(=O)c1ccc(F)c(N2CCC(N3CCC(c4nc5ccccc5c(=O)[nH]4)C3)CC2)n1 (racemic) [Compound 105rac] | − (− indicates a value of less than 10) | 6.00 to 7.00 | 6.00 to 7.00 | 5.00 to 6.00 | – | – | – | – | –
CCc1cnc(C23CC(C2)N(C2CCN(c4ccc(C(=O)NC)nc4C(F)(F)F)CC2)C3)[nH]c1=O [Compound 310] | +++ (+++ indicate a value of at least 100) | – | – | – | – | 7.00 to 8.00 | < 5.00 | > 8.00 | –
CNC(=O)c1ccc(N2CCC(N3CCC(c4nc5c(c(=O)[nH]4)NCCN5)C3)CC2)cn1 (racemic) [Compound 226rac] | ++ (++ indicates a value of 50 to less than 100) | – | – | – | 7.00 to 8.00 | 7.00 to 8.00 | < 5.00 | – | –
CNC(=O)c1ccc(N2CCC(N3CCCC(c4nc5ccncc5c(=O)[nH]4)C3)CC2)cn1 (single isomer, unassigned) [Compound 93b] | − (− indicates a value of less than 10) | 5.00 to 6.00 | 5.00 to 6.00 | < 5.00 | – | – | – | – | –
CNC(=O)c1ccc(N2CCC(N3CCCC(c4nc5ccccc5c(=O)[nH]4)C3)CC2)c(Cl)n1 (single isomer, unassigned) [Compound 94b] | +++ (+++ indicate a value of at least 100) | > 8.00 | > 8.00 | < 5.00 | – | – | – | – | –
CNC(=O)c1ccc(N2CCC(N3CCC(c4cc5ncc(F)cc5c(=O)[nH]4)C3)CC2)c(F)n1 (single isomer, unassigned) [Compound 324a] | +++ (+++ indicate a value of at least 100) | – | – | – | > 8.00 | > 8.00 | < 5.00 | – | –
CNC(=O)c1cc(N2CCC(N3CCC(c4cc5ccccc5c(=O)[nH]4)C3)CC2)cs1 (racemic) [Compound 296rac] | + (+ indicates a value of 10 to less than 50) | – | – | – | > 8.00 | > 8.00 | 6.00 to 7.00 | – | –
CNC(=O)c1ccc(N2CCC(N3CCC(c4nc5onc(C(F)(F)F)c5c(=O)[nH]4)C3)CC2)cn1 (single isomer, unassigned) [Compound 176b] | ++ (++ indicates a value of 50 to less than 100) | 6.00 to 7.00 | 7.00 to 8.00 | < 5.00 | – | – | – | – | –
O=C(NCC(F)(F)F)c1ccc(N2CCC(N3CCCC(c4nc5ccccc5c(=O)[nH]4)C3)CC2)cn1 (single isomer, unassigned) [Compound 115a] | + (+ indicates a value of 10 to less than 50) | 6.00 to 7.00 | 6.00 to 7.00 | 5.00 to 6.00 | – | – | – | – | –
CNC(=O)c1ccc(N2CCC(N3CCC(c4cc5cnccc5c(=O)[nH]4)C3)CC2)cn1 (racemic) [Compound 204rac] | +++ (+++ indicate a value of at least 100) | > 8.00 | > 8.00 | < 5.00 | – | – | – | – | –
COCCNC(=O)c1ccc(N2CCC(N3CCCC(c4nc5ccccc5c(=O)[nH]4)C3)CC2)cn1 (single isomer, unassigned) [Compound 116b] | − (− indicates a value of less than 10) | 6.00 to 7.00 | 6.00 to 7.00 | 5.00 to 6.00 | – | – | – | – | –
CNC(=O)c1ccc(N2CCC(N3CCC(c4ccc(OC)c(=O)[nH]4)C3)CC2)cn1 (single isomer, unassigned) [Compound 148a] | − (− indicates a value of less than 10) | < 5.00 | 5.00 to 6.00 | < 5.00 | – | – | – | – | –
CNC(=O)c1cc(C(F)(F)F)c(N2CCC(N3CCC(c4cc5cccc(F)c5c(=O)[nH]4)C3)CC2)cn1 (single isomer, unassigned) [Compound 308a] | + (+ indicates a value of 10 to less than 50) | – | – | – | 6.00 to 7.00 | 6.00 to 7.00 | 5.00 to 6.00 | – | –
CNC(=O)c1cc(Cl)c(N2CCC(N3CCC(c4cc5ccc(F)cc5c(=O)[nH]4)C3)CC2)cn1 (single isomer, unassigned) [Compound 236a] | + (+ indicates a value of 10 to less than 50) | – | – | – | 7.00 to 8.00 | 7.00 to 8.00 | 6.00 to 7.00 | – | –
CCCc1ccc(C2CCN(C3CCN(c4ccc(C(=O)NC)nc4)CC3)C2)[nH]c1=O (single isomer, unassigned) [Compound 261a] | − (− indicates a value of less than 10) | – | – | – | 5.00 to 6.00 | 6.00 to 7.00 | < 5.00 | – | –
CNC(=O)c1cc(C)c(N2CCC(N3CCC(c4cc5ccncc5c(=O)[nH]4)C3)CC2)c(C)n1 (racemic) [Compound 211rac] | +++ (+++ indicate a value of at least 100) | > 8.00 | > 8.00 | 6.00 to 7.00 | – | – | – | – | –
CNC(=O)c1ccc(N2CCC(N3CCCC(c4nc5c(F)cccc5c(=O)[nH]4)C3)CC2)cn1 (single isomer, unassigned) [Compound 114a] | +++ (+++ indicate a value of at least 100) | > 8.00 | > 8.00 | < 5.00 | – | – | – | – | –
CNC(=O)c1ccc(N2CCC(N3CCC(c4[nH]c(=O)c5ccccc5c4Cl)C3)CC2)cn1 (single isomer, unassigned) [Compound 219b] | +++ (+++ indicate a value of at least 100) | – | – | – | > 8.00 | > 8.00 | 6.00 to 7.00 | – | –
N#Cc1ccc(N2CCC(N3CCC(c4cc5cccc(F)c5c(=O)[nH]4)C3)CC2)cc1 (single isomer, unassigned) [Compound 314a] | + (+ indicates a value of 10 to less than 50) | – | – | – | > 8.00 | > 8.00 | 6.00 to 7.00 | – | –
CCc1cnc(C2CCN(C3CCN(c4ccc(C(=O)NC)nc4)CC3)C2)[nH]c1=O (racemic) [Compound 42rac] | +++ (+++ indicate a value of at least 100) | – | > 8.00 | 5.00 to 6.00 | – | – | – | – | > 8.00
CCc1ccc(C2CCN(C3CCN(c4ccc(C(=O)NC)nc4F)CC3)C2)[nH]c1=O (single isomer, unassigned) [Compound 151b, 5-(4-(3-(5-ethyl-6-oxo-1,6-dihydropyridin-2-yl)pyrrolidin-1-yl)piperidin-1-yl)-6-fluoro-N-methylpicolinamide] | +++ (+++ indicate a value of at least 100) | > 8.00 | > 8.00 | < 5.00 | – | – | – | – | –
CCc1ccc(C2CCN(C3CCN(c4ccc(C#N)nc4)CC3)C2)[nH]c1=O (single isomer, unassigned) [Compound 326b] | +++ (+++ indicate a value of at least 100) | – | – | – | > 8.00 | 7.00 to 8.00 | 5.00 to 6.00 | – | –
COCCNC(=O)c1ccc(N2CCC(N3CCCC(c4nc5ccccc5c(=O)[nH]4)C3)CC2)cn1 (single isomer, unassigned) [Compound 116a] | +++ (+++ indicate a value of at least 100) | 7.00 to 8.00 | 7.00 to 8.00 | < 5.00 | – | – | – | – | –

Source: US20250152585A1, “PHARMACEUTICAL COMPOUND” (Duke Street Bio Limited, priority 2022, published 2025)
